Laboratory results as given in paper PMC8878047 (Pharmaceutics, 2022).
Like-named read-outs stand apart in the source and are kept apart here.

How the values were obtained:
[1] = test system: wild type AB strain zebrafish; details: for statistical survival of the tested zebrafish / statistical death of the tested zebrafish: 30 embryos per well
Experimental: Zebrafish were incubated and grown in the Joint Laboratory established by Shandong Rui’ying Pharmaceutical Group (Heze, China) and China Pharmaceutical University. Both the Wild-type AB (Danio rerio) and Tg(mpx:eGFP) zebrafish strains were maintained under the guidance of the standard procedures of The Zebrafish Book. […] Then the zebrafish were allowed to naturally mate and spawn the next morning. The normally born embryos were then collected after 1 h and kept in an incubating system at 28 °C. The 6 hpf (hour post fertilization) embryos were transferred into a 6-well plate exposed to 5 mL of egg water, in which 30 embryos were in each well.

[2] = test system: neutrophil cluster aggregation; assay: CuSO4-induced inflammation model in Tg(mpx:eGFP) zebrafish; details: 10 μM CuSO4 40 min, Tg(mpx:eGFP) 3 dpf
[3] = test system: H2O2-induced ROS production; assay: H2O2-induced oxidative stress model in zebrafish (DCFH-DA); details: 48 h pre-treatment, H2O2 1.0 mM 4 h, H2O2-induced 17,250, control 590
[4] = Pharmacokinetic study in plasma after oral administration (HPLC-MS); details: SD rats, EFX 10 mg/kg, EFX-Ca 12 mg/kg
E. coli [5] = assay: Quasi-clinical trial on E. coli-infected AA broilers (drug-mixed feeding); details: for Average Final Weight / Average Weight Gain / Average Increment of Weight / Cure Rate (%) / Survival Number: AA broilers; for Average Weight Gain: Table 7; for Average Increment of Weight: Table 8; for Cure Rate (%) / Survival Number: 6 d; for Survival Number: 50 per group
Experimental: (§1) Then, broilers were randomly and equally divided into five different groups and marked as five groups. […] Note that the daily drug-mixed feeding ratio (g drug/kg feed) was indicated for the first 4 h every day, and unmedicated feed then followed. In addition, E. coli strains for the infection of chicken was supplied as a freeze-dried powder. They were revived and cultured according to the standard procedures. The strain was inoculated into a liquid medium and cultured in a 37 °C incubator for 6–8 h. We detected the concentration of the bacterial liquid to be 2.8 × 10^8 CFU/mL as the pathogenic concentration. Finally, all of the chickens except the healthy control group were intramuscularly injected with 0.5 mL of pathogenic bacteria, and all chickens were fasted for 4 h. After successfully simulating the bacterial infection of the chickens, the drug-mixed feeding chickens were continuously fed for 6 d. During this time, we observed their behavioral habits, mortality, and recovery rates.

E. coli [6] = assay: Quasi-clinical trial on E. coli-infected 817 broilers (drug-mixed feeding); details: for Average Final Weight / Average Weight Gain / Average Increment of Weight / Cure Rate (%) / Survival Number: 817 broilers; for Average Weight Gain: Table 7; for Average Increment of Weight: Table 8; for Cure Rate (%) / Survival Number: 6 d; for Survival Number: 50 per group
Experimental: as §1

[7] = EFX-Ca High 14 g drug (5% solution) + 1.5 kg feed/4 h
[8] = EFX-Ca Low 6 g drug (5% solution) + 1.5 kg feed/4 h
[9] = EFX-Ca Medium 9 g + 1.5 kg feed
[10] = EFX-Ca Medium 9 g drug (5% solution) + 1.5 kg feed/4 h
[11] = EFX-Ca High 14 g + 0.75 kg feed
[12] = EFX-Ca High 14 g drug (5% solution) + 0.75 kg feed/4 h
[13] = EFX-Ca Low 6 g drug (5% solution) + 0.75 kg feed/4 h
[14] = EFX-Ca Medium 9 g + 0.75 kg feed
[15] = EFX-Ca Medium 9 g drug (5% solution) + 0.75 kg feed/4 h

With `CCN1CCN(c2cc3c(cc2F)c(=O)c(C(=O)[O-])cn3C2CC2)CC1.CCN1CCN(c2cc3c(cc2F)c(=O)c(C(=O)[O-])cn3C2CC2)CC1.O.O.O.O.[Ca+2]` [EFX-Ca, [Ca(EFX)2(H2O)4]·H2O] the “statistical survival of the tested zebrafish” value (shortened to “statistical survival”) ([1]; 10 μM medicated bath, 96 hpf) was 26, the “statistical death of the tested zebrafish” value (from here on “statistical death”) ([1]; 10 μM medicated bath, 120 hpf) was 4 and the “statistical survival” value ([1]; 10 μM medicated bath, 120 hpf) was 26. For the same compound, the “statistical death” value ([1]; 20 μM medicated bath, 24 hpf) was 0, the “statistical survival” value ([1]; 20 μM medicated bath, 24 hpf) was 30 and the “statistical death” value ([1]; 20 μM medicated bath, 48 hpf) was 0. The “statistical survival” value ([1]; 20 μM medicated bath, 48 hpf) was 30, the “statistical death” value ([1]; 20 μM medicated bath, 72 hpf) was 0 and the “statistical survival” value ([1]; 20 μM medicated bath, 72 hpf) was 30. The “statistical death” value ([1]; 20 μM medicated bath, 96 hpf) was 0, the “statistical survival” value ([1]; 20 μM medicated bath, 96 hpf) was 30 and the “statistical death” value ([1]; 20 μM medicated bath, 120 hpf) was 0. The “statistical survival” value ([1]; 20 μM medicated bath, 120 hpf) was 30, the “physiological abnormalities of zebrafish” value ([1]; full-range concentration 0.01 to 20 μM, 24 to 120 hpf) was “no obvious physiological abnormalities” and the CuSO4-induced neutrophil aggregation ([2]; 0.1 μM pre-incubation 1 h) was “significantly dispersed”. For the same compound, the CuSO4-induced neutrophil aggregation ([2]; 1 μM pre-incubation 1 h) was “the neutrophil aggregation was more effectively inhibited”, the “Average IOD (integrated optical density) of green fluorescence” value (shortened to “Average IOD (integrated optical density)”) ([3]; 0.01 μM) was 1060 a.u and the “Average IOD (integrated optical density)” value ([3]; 0.1 μM) was 721 a.u. For the same compound, the “Average IOD (integrated optical density)” value ([3]; 1 μM) was 863 a.u, the Ke ([4]; plasma) was 0.16 and the Tmax ([4]; plasma) was 0.75 H. For the same compound, the Vd ([4]; plasma) was 0.26744 L/kg, the “t 1/2β” value ([4]; plasma) was 4.41 H and the concentration at 0 h ([4]; male, SD, rat, in vivo, Drug concentration in plasma, 0 h) was 80 ng/mL. It also gave a concentration at 0.083 h ([4]; male, SD, rat, in vivo, Drug concentration in plasma, 0.083 h) of 860 ng/mL, a concentration at 0.333 h ([4]; male, SD, rat, in vivo, Drug concentration in plasma, 0.333 h) of 840 ng/mL and a concentration at 0.5 h ([4]; male, SD, rat, in vivo, Drug concentration in plasma, 0.5 h) of 1690 ng/mL. For the same compound, the concentration at 0.75 h ([4]; male, SD, rat, in vivo, Drug concentration in plasma, 0.75 h) was 1920 ng/mL, the concentration at 1 h ([4]; male, SD, rat, in vivo, Drug concentration in plasma, 1 h) was 1390 ng/mL and the concentration at 3 h ([4]; male, SD, rat, in vivo, Drug concentration in plasma, 3 h) was 770 ng/mL. For the same compound, the concentration at 4 h ([4]; male, SD, rat, in vivo, Drug concentration in plasma, 4 h) was 700 ng/mL, the concentration at 6 h ([4]; male, SD, rat, in vivo, Drug concentration in plasma, 6 h) was 580 ng/mL and the concentration at 8 h ([4]; male, SD, rat, in vivo, Drug concentration in plasma, 8 h) was 480 ng/mL. The concentration at 10 h ([4]; male, SD, rat, in vivo, Drug concentration in plasma, 10 h) was 100 ng/mL, the concentration at 12 h ([4]; male, SD, rat, in vivo, Drug concentration in plasma, 12 h) was 140 ng/mL and the concentration at 24 h ([4]; male, SD, rat, in vivo, Drug concentration in plasma, 24 h) was 90 ng/mL. For the same compound, the “Average Final Weight” value (E. coli [5]; EFX-Ca High 14 g + 1.5 kg feed) was 1750 ± 125 g, the “Average Weight Gain” value (E. coli [5]; EFX-Ca High 14 g + 1.5 kg feed) was 250 and the “Average Increment of Weight” value (E. coli [5]; EFX-Ca High 14 g + 1.5 kg feed) was 230 g. For the same compound, the “Cure Rate (%)” value (E. coli [5]; [7]) was 60%, the “Survival Number” value (E. coli [5]; [7]) was 30 and the “Average Final Weight” value (E. coli [5]; EFX-Ca Low 6 g + 1.5 kg feed) was 1690 ± 95 g. The “Average Weight Gain” value (E. coli [5]; EFX-Ca Low 6 g + 1.5 kg feed) was 190, the “Average Increment of Weight” value (E. coli [5]; EFX-Ca Low 6 g + 1.5 kg feed) was 190 g and the “Cure Rate (%)” value (E. coli [5]; [8]) was 54%. For the same compound, the “Survival Number” value (E. coli [5]; [8]) was 27, the “Average Final Weight” value (E. coli [5]; [9]) was 1640 ± 73 g and the “Average Weight Gain” value (E. coli [5]; [9]) was 140. For the same compound, the “Average Increment of Weight” value (E. coli [5]; [9]) was 280 g, the “Cure Rate (%)” value (E. coli [5]; [10]) was 78% and the “Survival Number” value (E. coli [5]; [10]) was 39. The “highest cure rate, higher than the EFX dose group by” value (E. coli [5]; AA infected chickens, EFX-Ca medium dose vs EFX) was 25.8%, the “Average Final Weight” value (E. coli [6]; [11]) was 1000 ± 51 g and the “Average Weight Gain” value (E. coli [6]; [11]) was 70. For the same compound, the “Average Increment of Weight” value (E. coli [6]; [11]) was 80 g, the “Cure Rate (%)” value (E. coli [6]; [12]) was 58% and the “Survival Number” value (E. coli [6]; [12]) was 29. For the same compound, the “Average Final Weight” value (E. coli [6]; EFX-Ca Low 6 g + 0.75 kg feed) was 1210 ± 67 g, the “Average Weight Gain” value (E. coli [6]; EFX-Ca Low 6 g + 0.75 kg feed) was 280 and the “Average Increment of Weight” value (E. coli [6]; EFX-Ca Low 6 g + 0.75 kg feed) was 260 g. For the same compound, the “Cure Rate (%)” value (E. coli [6]; [13]) was 88%, the “Survival Number” value (E. coli [6]; [13]) was 44 and the “Average Final Weight” value (E. coli [6]; [14]) was 1010 ± 61 g. For the same compound, the “Average Weight Gain” value (E. coli [6]; [14]) was 80, the “Average Increment of Weight” value (E. coli [6]; [14]) was 140 g and the “Cure Rate (%)” value (E. coli [6]; [15]) was 80%. The “Survival Number” value (E. coli [6]; [15]) was 40 and the “highest cure rate, higher than the EFX dose group by” value (E. coli [6]; 817 infected chickens, EFX-Ca low dose vs EFX) was 37.5%.
